From the supplement of paper PMC13207355
Structures can show the parent of a compound that is named as a salt.

Columns and labels:
Conditions in all cases: exposure time: 72 h
[1] = test system: E13 (patient-derived glioblastoma stem cells of classical subtype); test: surviving fraction (nuclei count normalised to DMSO); higher = more cells surviving (less toxic)
[2] = test system: E21 (patient-derived glioblastoma stem cells of mesenchymal subtype); test: as above
[3] = test system: E28 (patient-derived glioblastoma stem cells of classical subtype); test: as above
[4] = test system: E31 (patient-derived glioblastoma stem cells of proneural subtype); test: as above
[5] = test system: E34 (patient-derived glioblastoma stem cells of proneural subtype); test: as above
[6] = test system: E57 (patient-derived glioblastoma stem cells of mesenchymal subtype); test: as above
[7] = test system: FT3469 (normal neural stem cell line); test: as above
[8] = test system: E13; test: phenotypic distance (Euclidean, principal components) from DMSO controls (arbitrary units); higher = stronger morphological change
[9] = test system: E21; test: as above
[10] = test system: E28; test: as above
[11] = test system: E31; test: as above
[12] = test system: E34; test: as above
[13] = test system: E57; test: as above
[14] = test system: FT3469; test: as above
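For phenotypic distance (Euclidean, principal components) from DMSO controls in this document: cell Painting imaging in 384-well plates, CellProfiler features reduced to at least 20 principal components, Euclidean distance versus same-plate DMSO vehicle wells (0.1% v/v), median over six images per well.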
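For surviving fraction (nuclei count normalised to DMSO) in this document: nuclei counted by high-content imaging of Hoechst-stained cells in laminin-coated 384-well plates, relative to 0.1% DMSO vehicle wells, with staurosporine as cell-death control.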

CC(NCCC(c1ccccc1)c1ccccc1)c1ccccc1 (configuration not stated) [Fendiline hydrochloride]
Conditions | phenotypic distance | surviving fraction
[1], 4.1 nM | – | 0.853
[1], 12.3 nM | – | 0.993
[1], 37 nM | – | 0.984
[1], 111.1 nM | – | 0.898
[1], 333.3 nM | – | 1.03
[1], 1000 nM | – | 1.1
[1], 3000 nM | – | 0.976
[2], 4.1 nM | – | 1.03
[2], 12.3 nM | – | 0.876
[2], 37 nM | – | 0.962
[2], 111.1 nM | – | 0.95
[2], 333.3 nM | – | 1.01
[2], 1000 nM | – | 0.962
[2], 3000 nM | – | 0.961
[3], 4.1 nM | – | 0.897
[3], 12.3 nM | – | 1.08
[3], 37 nM | – | 0.956
[3], 111.1 nM | – | 1.12
[3], 333.3 nM | – | 0.967
[3], 1000 nM | – | 1.08
[3], 3000 nM | – | 1.04
[4], 4.1 nM | – | 1.09
[4], 12.3 nM | – | 0.954
[4], 37 nM | – | 0.955
[4], 111.1 nM | – | 1.02
[4], 333.3 nM | – | 0.968
[4], 1000 nM | – | 0.988
[4], 3000 nM | – | 1.15
[5], 4.1 nM | – | 1.02
[5], 12.3 nM | – | 0.952
[5], 37 nM | – | 0.969
[5], 111.1 nM | – | 0.959
[5], 333.3 nM | – | 1.07
[5], 1000 nM | – | 0.954
[5], 3000 nM | – | 1.09
[6], 4.1 nM | – | 0.982
[6], 12.3 nM | – | 1.03
[6], 37 nM | – | 1.01
[6], 111.1 nM | – | 1.08
[6], 333.3 nM | – | 1.07
[6], 1000 nM | – | 1.04
[6], 3000 nM | – | 1.09
[7], 4.1 nM | – | 0.944
[7], 12.3 nM | – | 0.918
[7], 37 nM | – | 0.939
[7], 111.1 nM | – | 1.11
[7], 333.3 nM | – | 0.92
[7], 1000 nM | – | 1.28
[7], 3000 nM | – | 0.989
[8], 4.1 nM | 1.49 | –
[8], 12.3 nM | 0.566 | –
[8], 37 nM | 0.415 | –
[8], 111.1 nM | 1.15 | –
[8], 333.3 nM | 0.412 | –
[8], 1000 nM | 0.615 | –
[8], 3000 nM | 1.21 | –
[9], 4.1 nM | 0.402 | –
[9], 12.3 nM | 0.709 | –
[9], 37 nM | 0.475 | –
[9], 111.1 nM | 0.445 | –
[9], 333.3 nM | 0.634 | –
[9], 1000 nM | 0.668 | –
[9], 3000 nM | 0.648 | –
[10], 4.1 nM | 0.507 | –
[10], 12.3 nM | 0.605 | –
[10], 37 nM | 0.415 | –
[10], 111.1 nM | 0.773 | –
[10], 333.3 nM | 0.762 | –
[10], 1000 nM | 0.645 | –
[10], 3000 nM | 0.861 | –
[11], 4.1 nM | 0.374 | –
[11], 12.3 nM | 0.903 | –
[11], 37 nM | 0.419 | –
[11], 111.1 nM | 0.715 | –
[11], 333.3 nM | 0.436 | –
[11], 1000 nM | 0.581 | –
[11], 3000 nM | 1.24 | –
[12], 4.1 nM | 0.542 | –
[12], 12.3 nM | 0.85 | –
[12], 37 nM | 0.586 | –
[12], 111.1 nM | 0.878 | –
[12], 333.3 nM | 0.354 | –
[12], 1000 nM | 0.817 | –
[12], 3000 nM | 0.823 | –
[13], 4.1 nM | 0.595 | –
[13], 12.3 nM | 0.626 | –
[13], 37 nM | 0.661 | –
[13], 111.1 nM | 0.669 | –
[13], 333.3 nM | 0.423 | –
[13], 1000 nM | 0.376 | –
[13], 3000 nM | 0.679 | –
[14], 4.1 nM | 0.761 | –
[14], 12.3 nM | 0.264 | –
[14], 37 nM | 0.282 | –
[14], 111.1 nM | 0.794 | –
[14], 333.3 nM | 0.524 | –
[14], 1000 nM | 1.26 | –
[14], 3000 nM | 0.835 | –

CC(C)(C)CC(C)(C)c1ccc(OCCOCC[N+](C)(C)Cc2ccccc2)cc1 [Benzethonium chloride]
phenotypic distance
Conditions | [8] | [9] | [10] | [11] | [12] | [13] | [14]
4.11523 nM | 0.537 | 0.773 | 0.718 | 0.922 | 0.73 | 0.566 | 0.694
12.34567901 nM | 0.594 | 1.03 | 0.685 | 0.452 | 0.622 | 0.67 | 1.16
37.037 nM | 0.837 | 0.654 | 0.4 | 0.793 | 0.82 | 0.808 | 0.855
111.1111111 nM | 1.05 | 1 | 0.716 | 0.714 | 0.847 | 0.566 | 0.746
333.333 nM | 0.65 | 0.939 | 0.667 | 1.42 | 0.91 | 0.524 | 0.802
1000 nM | 1.22 | 1.3 | 0.382 | 1.81 | 1.21 | 2.04 | 2.79
3000 nM | 4.92 | 3.86 | 4.89 | 12.9 | 2.98 | 4.76 | 2.88
